# PubChem BioAssay (NCI)
#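 Assay format: 96-well plates, 48-hour exposure. Here, GI50 denotes the concentration required for 50% inhibition of growth. At the TGI there is no net growth.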
# Legend:
# Experiment in all cases: growth of human tumour cells (NCI), 48 h
# 786-0 renal = test system: 786-0 renal
# A498 renal = test system: A498 renal
# A549 NSCLC = test system: A549 NSCLC
# ACHN renal = test system: ACHN renal
# CAKI-1 renal = test system: CAKI-1 renal
# CCRF-CEM leukemia = test system: CCRF-CEM leukemia
# COLO 205 colon = test system: COLO 205 colon
# DU-145 prostate = test system: DU-145 prostate
# EKVX NSCLC = test system: EKVX NSCLC
# HCC-2998 colon = test system: HCC-2998 colon
# HCT-116 colon = test system: HCT-116 colon
# HCT-15 colon = test system: HCT-15 colon
# HL-60(TB) leukemia = test system: HL-60(TB) leukemia
# HOP-62 NSCLC = test system: HOP-62 NSCLC
# HOP-92 NSCLC = test system: HOP-92 NSCLC
# HS 578T breast = test system: HS 578T breast
# HT29 colon = test system: HT29 colon
# KM12 colon = test system: KM12 colon
# LOX IMVI melanoma = test system: LOX IMVI melanoma
# M14 melanoma = test system: M14 melanoma
# MCF7 breast = test system: MCF7 breast
# MDA-MB-435 = test system: MDA-MB-435
# MDA-N = test system: MDA-N
# MOLT-4 leukemia = test system: MOLT-4 leukemia
# NCI-H226 lung = test system: NCI-H226 lung
# NCI-H23 lung = test system: NCI-H23 lung
# NCI-H460 lung = test system: NCI-H460 lung
# NCI-H522 lung = test system: NCI-H522 lung
# NCI/ADR-RES ovarian = test system: NCI/ADR-RES ovarian
# OVCAR-3 ovarian = test system: OVCAR-3 ovarian
# OVCAR-4 ovarian = test system: OVCAR-4 ovarian
# OVCAR-5 ovarian = test system: OVCAR-5 ovarian
# OVCAR-8 ovarian = test system: OVCAR-8 ovarian
# RPMI-8226 leukemia = test system: RPMI-8226 leukemia
# RXF 393 renal = test system: RXF 393 renal
# SF-268 CNS = test system: SF-268 CNS
# SF-295 CNS = test system: SF-295 CNS
# SF-539 CNS = test system: SF-539 CNS
# SK-MEL-5 melanoma = test system: SK-MEL-5 melanoma
# SK-OV-3 ovarian = test system: SK-OV-3 ovarian
# SN12C renal = test system: SN12C renal
# SNB-75 CNS = test system: SNB-75 CNS
# SR leukemia = test system: SR leukemia
# SW-620 colon = test system: SW-620 colon
# T-47D breast = test system: T-47D breast
# TK-10 renal = test system: TK-10 renal
# UACC-257 melanoma = test system: UACC-257 melanoma
# UACC-62 melanoma = test system: UACC-62 melanoma
# UO-31 renal = test system: UO-31 renal
# BT-549 breast = test system: BT-549 breast
# IGROV1 ovarian = test system: IGROV1 ovarian
# K-562 leukemia = test system: K-562 leukemia
# MALME-3M melanoma = test system: MALME-3M melanoma
# MDA-MB-231 breast = test system: MDA-MB-231 breast
# PC-3 prostate = test system: PC-3 prostate
# SK-MEL-2 melanoma = test system: SK-MEL-2 melanoma
# SK-MEL-28 melanoma = test system: SK-MEL-28 melanoma
# SNB-19 CNS = test system: SNB-19 CNS
# U251 CNS = test system: U251 CNS
structure (smiles),measurement,setting,value
CCCCCCCCCN1CCC(=O)C(C(=O)OC)C1 (configuration not stated),TGI,786-0 renal,30.6 µM
same,TGI,A498 renal,52.7 µM
same,TGI,A549 NSCLC,30.7 µM
same,TGI,ACHN renal,21 µM
same,TGI,CAKI-1 renal,29.2 µM
same,TGI,CCRF-CEM leukemia,31.2 µM
same,TGI,COLO 205 colon,30.8 µM
same,TGI,DU-145 prostate,29.3 µM
same,TGI,EKVX NSCLC,34 µM
same,TGI,HCC-2998 colon,33.8 µM
same,TGI,HCT-116 colon,26.9 µM
same,TGI,HCT-15 colon,26.9 µM
same,TGI,HL-60(TB) leukemia,10.9 µM
same,TGI,HOP-62 NSCLC,31.3 µM
same,TGI,HOP-92 NSCLC,33.9 µM
same,TGI,HS 578T breast,36.6 µM
same,TGI,HT29 colon,22.7 µM
same,TGI,KM12 colon,13.1 µM
same,TGI,LOX IMVI melanoma,26.1 µM
same,TGI,M14 melanoma,29.2 µM
same,TGI,MCF7 breast,24.9 µM
same,TGI,MDA-MB-435,28.5 µM
same,TGI,MDA-N,29.5 µM
same,TGI,MOLT-4 leukemia,54.6 µM
same,TGI,NCI-H226 lung,27.5 µM
same,TGI,NCI-H23 lung,8.59 µM
same,TGI,NCI-H460 lung,32.9 µM
same,TGI,NCI-H522 lung,22 µM
same,TGI,NCI/ADR-RES ovarian,26.8 µM
same,TGI,OVCAR-3 ovarian,29.4 µM
same,TGI,OVCAR-4 ovarian,12.4 µM
same,TGI,OVCAR-5 ovarian,29 µM
same,TGI,OVCAR-8 ovarian,21 µM
same,TGI,RPMI-8226 leukemia,49.1 µM
same,TGI,RXF 393 renal,32.7 µM
same,TGI,SF-268 CNS,30.2 µM
same,TGI,SF-295 CNS,31.9 µM
same,TGI,SF-539 CNS,36.5 µM
same,TGI,SK-MEL-5 melanoma,33 µM
same,TGI,SK-OV-3 ovarian,31.1 µM
same,TGI,SN12C renal,29.5 µM
same,TGI,SNB-75 CNS,34 µM
same,TGI,SR leukemia,18.1 µM
same,TGI,SW-620 colon,27.9 µM
same,TGI,T-47D breast,28.3 µM
same,TGI,TK-10 renal,31.4 µM
same,TGI,UACC-257 melanoma,24.7 µM
same,TGI,UACC-62 melanoma,24.9 µM
same,TGI,UO-31 renal,22 µM
C[C@H]1[C@@H](OCC(CO[C@H]2O[C@@H]3O[C@@]4(C)CC[C@H]5[C@H](C)CC[C@@H]([C@H]2C)[C@@]35OO4)=NOCC(=O)O)OC2O[C@@]3(C)CC[C@H]4[C@H](C)CC[C@@H]1[C@@]24OO3 (some centres not stated),GI50,786-0 renal,0.112 µM
same,TGI,786-0 renal,23 µM
same,GI50,A498 renal,1.76 µM
same,TGI,A498 renal,19.6 µM
same,GI50,A549 NSCLC,0.0865 µM
same,TGI,A549 NSCLC,15.9 µM
same,GI50,ACHN renal,0.188 µM
same,TGI,ACHN renal,14.5 µM
same,GI50,BT-549 breast,0.473 µM
same,TGI,BT-549 breast,20.7 µM
same,GI50,CAKI-1 renal,0.117 µM
same,TGI,CAKI-1 renal,3.12 µM
same,GI50,CCRF-CEM leukemia,< 0.01 µM
same,TGI,CCRF-CEM leukemia,12.5 µM
same,GI50,COLO 205 colon,< 0.0195 µM
same,TGI,COLO 205 colon,0.422 µM
same,GI50,DU-145 prostate,10.8 µM
same,TGI,DU-145 prostate,28.1 µM
same,GI50,EKVX NSCLC,0.0982 µM
same,TGI,EKVX NSCLC,22.2 µM
same,GI50,HCC-2998 colon,1.28 µM
same,TGI,HCC-2998 colon,20.8 µM
same,GI50,HCT-116 colon,< 0.01 µM
same,TGI,HCT-116 colon,13.7 µM
same,GI50,HCT-15 colon,< 0.01 µM
same,TGI,HCT-15 colon,0.891 µM
same,GI50,HL-60(TB) leukemia,< 0.01 µM
same,TGI,HL-60(TB) leukemia,13.3 µM
same,GI50,HOP-62 NSCLC,0.229 µM
same,TGI,HOP-62 NSCLC,21.7 µM
same,GI50,HOP-92 NSCLC,< 0.01 µM
same,TGI,HOP-92 NSCLC,0.0621 µM
same,GI50,HS 578T breast,0.719 µM
same,TGI,HS 578T breast,22.4 µM
same,GI50,HT29 colon,< 0.01 µM
same,TGI,HT29 colon,15 µM
same,GI50,IGROV1 ovarian,0.0673 µM
same,TGI,IGROV1 ovarian,21.3 µM
same,GI50,K-562 leukemia,< 0.01 µM
same,TGI,K-562 leukemia,17.5 µM
same,GI50,KM12 colon,< 0.0166 µM
same,TGI,KM12 colon,13 µM
same,GI50,LOX IMVI melanoma,< 0.01 µM
same,TGI,LOX IMVI melanoma,13.3 µM
same,GI50,M14 melanoma,0.205 µM
same,TGI,M14 melanoma,18.8 µM
same,GI50,MALME-3M melanoma,< 0.0245 µM
same,GI50,MCF7 breast,0.212 µM
same,TGI,MCF7 breast,17.6 µM
same,GI50,MDA-MB-231 breast,0.12 µM
same,TGI,MDA-MB-231 breast,2.41 µM
same,GI50,MDA-MB-435,0.02 µM
same,TGI,MDA-MB-435,5.25 µM
same,GI50,MOLT-4 leukemia,< 0.01 µM
same,TGI,MOLT-4 leukemia,8.61 µM
same,GI50,NCI-H226 lung,0.0375 µM
same,TGI,NCI-H226 lung,20.1 µM
same,GI50,NCI-H23 lung,< 0.0283 µM
same,TGI,NCI-H23 lung,18.1 µM
same,GI50,NCI-H460 lung,0.0537 µM
same,TGI,NCI-H460 lung,19.5 µM
same,GI50,NCI-H522 lung,< 0.0151 µM
same,TGI,NCI-H522 lung,11.4 µM
same,GI50,NCI/ADR-RES ovarian,0.525 µM
same,TGI,NCI/ADR-RES ovarian,16.4 µM
same,GI50,OVCAR-3 ovarian,< 0.0188 µM
same,GI50,OVCAR-4 ovarian,0.0565 µM
same,TGI,OVCAR-4 ovarian,18.2 µM
same,GI50,OVCAR-5 ovarian,0.497 µM
same,TGI,OVCAR-5 ovarian,30.3 µM
same,GI50,OVCAR-8 ovarian,0.0332 µM
same,TGI,OVCAR-8 ovarian,16.4 µM
same,GI50,PC-3 prostate,< 0.01 µM
same,TGI,PC-3 prostate,13.5 µM
same,GI50,RPMI-8226 leukemia,< 0.01 µM
same,GI50,RXF 393 renal,0.0821 µM
same,TGI,RXF 393 renal,15.8 µM
same,GI50,SF-268 CNS,< 0.0231 µM
same,TGI,SF-268 CNS,0.889 µM
same,GI50,SF-295 CNS,0.1 µM
same,TGI,SF-295 CNS,17.3 µM
same,GI50,SF-539 CNS,0.442 µM
same,TGI,SF-539 CNS,20.9 µM
same,GI50,SK-MEL-2 melanoma,0.346 µM
same,TGI,SK-MEL-2 melanoma,14.8 µM
same,GI50,SK-MEL-28 melanoma,0.756 µM
same,TGI,SK-MEL-28 melanoma,20.6 µM
same,GI50,SK-MEL-5 melanoma,0.0288 µM
same,TGI,SK-MEL-5 melanoma,14.9 µM
same,GI50,SK-OV-3 ovarian,0.786 µM
same,TGI,SK-OV-3 ovarian,19.6 µM
same,GI50,SN12C renal,0.0215 µM
same,TGI,SN12C renal,1.02 µM
same,GI50,SNB-19 CNS,0.613 µM
same,TGI,SNB-19 CNS,18.7 µM
same,GI50,SNB-75 CNS,0.698 µM
same,TGI,SNB-75 CNS,15.4 µM
same,GI50,SR leukemia,< 0.01 µM
same,TGI,SR leukemia,11.8 µM
same,GI50,SW-620 colon,< 0.0137 µM
same,TGI,SW-620 colon,18 µM
same,GI50,T-47D breast,< 0.01 µM
same,TGI,T-47D breast,0.331 µM
same,GI50,TK-10 renal,0.0408 µM
same,TGI,TK-10 renal,4.57 µM
same,GI50,U251 CNS,< 0.0114 µM
same,TGI,U251 CNS,14 µM
same,GI50,UACC-257 melanoma,0.0266 µM
same,TGI,UACC-257 melanoma,16.4 µM
same,GI50,UACC-62 melanoma,0.0336 µM
same,TGI,UACC-62 melanoma,15.5 µM
same,GI50,UO-31 renal,0.0968 µM
same,TGI,UO-31 renal,11.3 µM
